Patent US20220251081A1, “HETEROBICYCLIC INHIBITORS OF MAT2A AND METHODS OF USE FOR TREATING CANCER” (priority 2019, published 2022)

Columns and labels:
HCT116 MTAP-/- = assay: Inhibition of cellular proliferation, 4 days, Cell Titer Glo, HCT116 MTAP-/-; assay type: cell-based; settings: Homo sapiens, HCT-116, 96 h, IC50 score, read-out: 4 Day Relative Growth Inhibition (MTAP −/−)
Method: (§1) Assay for Inhibition of Cellular Proliferation
(§2) Test compound impact on cancer cell growth was assessed by treating cancer cells with compound for 4 days and then measuring proliferation using an ATP-based cell proliferation readout (Cell Titer Glo, Promega Corporation).
(§3) In a typical assay an isogenic pair of HCT116 human colon carcinoma cell lines which vary only in MTAP deletion status (HCT116 MTAP +/+ and HCT116 MTAP−/−) were plated in 96-well dishes at appropriate cell density. Following 24 hours, cells were then treated with the candidate MAT2A inhibitor. Prior to addition to cells, the compound was first serially diluted in 100% DMSO, typically as a 3-fold serial dilution starting at 500× top dose with 10 dose points including DMSO only control. Compound was then transferred to a working stock plate in cell culture media by adding 5 μL of compound in DMSO to 495 μL of cell culture media. This working stock was then added to cells via a further 5-fold dilution, by adding 25 μL of working stock to 100 μL of cells in culture media. Following compound addition, cells were incubated at 37° C./5% C02 for 4 days.
(§4) To measure inhibition of cellular proliferation, cells were allowed to equilibrate to room temperature for 30 minutes, and were then treated with 125 μL of Cell Titer Glo reagent. The plate was then covered with aluminum foil and shaken for 15 minutes to ensure complete mixing and full cell lysis. Luminescent signal was then measured using a plate-based luminometer Veritas version 1.9.2 using ATP standard curve to confirm assay reproducibility from run to run. This luminescence measure was converted to a proliferation index by subtracting from each data point the ATP luminescence signal measured from a bank (no cells) well and dividing by the ATP luminescence signal measured in 0.2% DMSO control well adjusted for signal in blank well. Compound activity was then represented as a percentage change in proliferation relative to a within-plate DMSO control against log 10 of compound concentration in molar (M) units.

HCT116 MTAP +/+ = assay: Inhibition of cellular proliferation, 4 days, Cell Titer Glo, HCT116 MTAP+/+; assay type: cell-based; settings: Homo sapiens, HCT-116, 96 h, IC50 score, read-out: 4 Day Relative Growth Inhibition (MTAP +/+)
Method: as §1, §2, §3, §4

[1] = system: SAM in HCT116 human colon carcinoma cell line with deleted MTAP gene; assay: Cellular assay of target engagement (SAM): SAM level by LC-MS/MS after 72 hrs; assay type: cell-based; settings: HCT-116, IC50 score, read-out: Cell 72 h SAM Inhibition (MTAP −/−)
Method: Cellular Assay of Target Engagement (SAM)
Measurement of MAT2A activity in cells was made by direct quantitation of the abundance of the product of its enzymatic activity, SAM. Cancer cells were treated with candidate MAT2A inhibitors for a suitable incubation period, and the cells were then lysed using a reagent which quenched any further enzyme activity. Soluble metabolites including SAM were collected and SAM itself was directly measured from the lysate using quantitative LC-MS/MS.
A typical assay was performed using an HCT116 human colon carcinoma cell line which was genetically engineered to delete the MTAP gene (commercially available from Horizon Discovery). This cell line was utilized because it was determined that loss of the MTAP gene predicts sensitivity to MAT2A inhibitors. Cells were plated in 96-well dishes at appropriate cell density. Following 24 hours, cells were then treated with the candidate MAT2A inhibitor. Prior to addition to cells, the compound was first serially diluted in 100% DMSO, typically as a 3-fold serial dilution starting at 500× top dose with 10 dose points including DMSO only control. Compound was then transferred to a working stock plate in cell culture media by adding 5 μL of compound in DMSO to 495 μL of cell culture media. This working stock was then added to cells via a further 5-fold dilution, by adding 25 μL of working stock to 100 μL of cells in culture media. Following compound addition, cells were incubated at 37° C./5% CO2 for 72 hrs.
To quantitate SAM levels following compound treatment, cells were gently washed once in ammonium carbonate buffer (75 mM at pH 7.4), placed on dry ice, and lysed with metabolite extraction buffer (80% cold methanol and 20% water (v/v) with acetic acid at 1M final concentration with 200 ng/mL deuterated d3-SAM as internal control). Following centrifugation at 4° C. at 3,200 rpm for 30 minutes, the supernatant was collected and stored at −80° C. until analysis by Liquid Chromatography with tandem Mass Spectrometry (LC-MS/MS). LC-MS/MS analysis was performed using an API6500 Mass Spectrometer (Sciex, Framingham, Mass., USA) operating in positive ion spray mode and equipped with a Waters UPLC Acquity (Waters, Milford, Mass., USA) BEH Amide column. Multiple Reaction Monitoring data was acquired for SAM and the d3-SAM standard, using a mass transition pair at m/z 399.2→250.1 and 402.2→250.1, respectively. In a typical LC-MS/MS analysis, the initial flow rate was 0.5 ml/min of 25% mobile phase A (acetonitrile and water at 5:95 (v/v) with 1% formic acid and 10 mM ammonium acetate) and 75% mobile phase B (acetonitrile and water at 95:5 (v/v) with 1% formic acid and 10 mM ammonium acetate), 0.2-0.5 minutes with 75%-35% mobile phase B, 25%-65% mobile phase A, at 0.5 min 65% mobile phase A and 35% mobile phase B, 1.0-1.1 minutes with 35%-75% mobile phase B, 65%-25% mobile phase A, at 1.1 min 25% mobile phase A and 75% mobile phase B with a total run time of 1.5 minutes.

MAT2A homodimer = target: T1, MAT2A homodimer (Homo sapiens, UniProt P31153); assay: Biochemical assay: inhibition of recombinant MAT2A homodimer (phosphate release, PiColorLock Gold); settings: MAT2A IC50 score; read-out: Enzyme Inhibition
T1 construct: inferred from Ni sepharose purification and imidazole elution; made in house; host or cells: Sf9 insect cells, recombinant baculovirus (Bac to Bac, pFASTBAC1 vector)
Summary of the method: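 Baculovirus/Sf9-expressed, Ni-purified MAT2A at 4 μg/mL in pH 8.0 Tris/KCl/MgCl2/EDTA/BSA buffer, preincubated with compound 60 min at 25 °C. Started with ATP and L-methionine substrate mix (500 μM and 40 μM, stock in mix), 60 min at 25 °C; released phosphate by PiColorLock Gold against a phosphate standard curve.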

T1 sequence (P31153 whole entry): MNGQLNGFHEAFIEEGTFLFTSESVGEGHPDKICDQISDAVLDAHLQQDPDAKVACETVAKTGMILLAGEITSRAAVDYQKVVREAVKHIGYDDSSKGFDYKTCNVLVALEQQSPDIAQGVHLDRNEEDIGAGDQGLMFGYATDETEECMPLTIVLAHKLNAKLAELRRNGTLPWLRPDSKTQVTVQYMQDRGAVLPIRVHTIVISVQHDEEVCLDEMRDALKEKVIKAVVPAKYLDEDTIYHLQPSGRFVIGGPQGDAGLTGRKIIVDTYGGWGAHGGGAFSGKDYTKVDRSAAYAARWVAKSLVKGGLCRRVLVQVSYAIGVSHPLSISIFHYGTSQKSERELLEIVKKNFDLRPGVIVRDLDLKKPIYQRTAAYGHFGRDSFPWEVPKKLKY

SMILES	IC50 (HCT116 MTAP-/-) [nM]	IC50 (HCT116 MTAP +/+) [nM]	IC50 [1] [nM]	IC50 (MAT2A homodimer) [nM]
COc1ccc(-n2c(=O)c(-c3ccc4ncncc4c3)cc3cnc(NCC(F)(F)F)nc32)cc1 [Example 176]	< 100	100 to 1000	< 100	< 100
COc1ccc(-n2c(=O)c(-c3ccc4c(c3)OCO4)cc3cnc(NCC(F)(F)F)nc32)cc1 [Example 177]	≥ 1000	≥ 1000	< 100	< 100
COc1ccc(-n2c(=O)c(-c3ccc(=O)n(C)c3)cc3cnc(NCC(F)(F)F)nc32)cc1 [Example 180]	100 to 1000	≥ 1000	100 to 1000	< 100
COc1ccc(-n2c(=O)c(-c3cn[nH]c3)cc3cnc(NCC(F)(F)F)nc32)cc1 [Example 183]	≥ 1000	≥ 1000	100 to 1000	< 100
COc1ccc(-n2c(=O)c(-c3ccc4nccnc4c3)cc3cnc(NCC(F)(F)F)nc32)cc1 [Example 185]	100 to 1000	≥ 1000	< 100	< 100
COc1ccc(-n2c(=O)c(-c3ccc4nnccc4c3)cc3cnc(NCC(F)(F)F)nc32)cc1 [Example 186]	100 to 1000	≥ 1000	< 100	< 100
COc1ccc(-n2c(=O)c(-c3cnn(C)c3)cc3cnc(NCC(F)(F)F)nc32)cc1 [Example 187]	100 to 1000	≥ 1000	100 to 1000	< 100
COc1ccc(-n2c(=O)c(-c3ccc4ncsc4c3)cc3cnc(NCC(F)(F)F)nc32)cc1 [Example 188]	100 to 1000	≥ 1000	< 100	< 100
COc1ccc(-n2c(=O)c(-c3ccc4ncoc4c3)cc3cnc(NCC(F)(F)F)nc32)cc1 [Example 189]	100 to 1000	≥ 1000	100 to 1000	< 100
COc1ccc(-n2c(=O)c(-c3ccc4nncn4c3)cc3ccc(OCC(F)F)nc32)cc1 [Example 194, 3-([1,2,4]triazolo[4,3-a]pyridin-6-yl)-7-(2,2-difluoroethoxy)-1-(4-methoxyphenyl)-1,8-naphthyridin-2(1H)-one]	< 100	100 to 1000	< 100	< 100
CCOc1ccc2cc(-c3ccc4ncn(C)c4c3)c(=O)n(-c3ccc(Cl)cc3)c2n1 [Example 195]	< 100	100 to 1000	< 100	< 100
CCOc1ccc2cc(-c3ccc4nn(CC(C)(C)O)cc4c3)c(=O)n(-c3ccc(Cl)cc3)c2n1 [Example 196]	100 to 1000	100 to 1000	< 100	< 100
CCOc1ccc2cc(-c3ccc4nccn4c3)c(=O)n(-c3ccc(Cl)cc3)c2n1 [Example 197]	< 100	≥ 1000	< 100	< 100
CCOc1ccc2cc(-c3ccc(=O)n(C)c3)c(=O)n(-c3ccc(Cl)cc3)c2n1 [Example 199]	100 to 1000	≥ 1000	< 100	< 100
